Assay results: DBAASP
In brackets after ≈: the same amount, converted by molar mass.

Experiments:
Test in all cases: ≥ marks a high value that may be exact or a test limit, other limits are often not marked, values filed in µg/mL are converted to µM
Klebsiella pneumoniae = test system: Klebsiella pneumoniae
Pseudomonas aeruginosa = test system: Pseudomonas aeruginosa
Bacillus subtilis = test system: Bacillus subtilis
[1] = test system: Staphylococcus epidermidis
Proteus mirabilis = test system: Proteus mirabilis
Salmonella typhimurium = test system: Salmonella typhimurium
Shigella dysenteriae = test system: Shigella dysenteriae
Staphylococcus aureus = test system: Staphylococcus aureus
Micrococcus luteus = test system: Micrococcus luteus
Escherichia coli = test system: Escherichia coli
Serratia marcescens = test system: Serratia marcescens
Candida albicans = test system: Candida albicans
Saccharomyces cerevisiae = test system: Saccharomyces cerevisiae
Escherichia coli HB101 = test system: Escherichia coli HB101
[2] = test system: Clavibacter michiganensis subsp. michiganensis DSM 46294
[3] = test system: Pseudomonas corrugata DSM 7228
[4] = test system: Pseudomonas syringae pv. syringae DSM 10604
[5] = test system: Xanthomonas vesicatoria DSM 50861
[6] = test system: Pseudomonas syringae pv. tomato DC3000
[7] = test system: Pectobacterium carotovorum subsp. carotovorum DSM 30168
[8] = test system: Salmonella enterica subsp. enterica serovar Typhimurium C77-31
[9] = test system: Staphylococcus epidermidis ATCC 12228
[10] = test system: Salmonella enterica subsp. enterica serovar Pullorum C79-13
[11] = test system: Escherichia coli ATCC 25922
[12] = test system: Staphylococcus aureus ATCC 29213
[13] = test system: Enterococcus faecalis ATCC 29212

Row | SMILES | MIC (Klebsiella pneumoniae) | MIC (Pseudomonas aeruginosa) | MIC (Bacillus subtilis) | MIC [1] | MIC (Proteus mirabilis) | MIC (Salmonella typhimurium) | MIC (Shigella dysenteriae) | MIC (Staphylococcus aureus) | MIC (Micrococcus luteus) | MIC (Escherichia coli) | MIC [2] | MIC [3] | MIC [4] | MIC [5] | MIC [6] | MIC [7] | other results
1 | CC(C)C[C@H](NC(=O)[C@H](C)NC(=O)CNC(=O)[C@H](CC(C)C)NC(=O)[C@@H](N)Cc1ccccc1)C(=O)N[C@@H](Cc1ccccc1)C(=O)N[C@@H](CCCCN)C(=O)N[C@H](C(=O)N[C@@H](C)C(=O)N[C@@H](CO)C(=O)N[C@@H](CCCCN)C(=O)O)C(C)C [FLGALFKVASK] | > 169 µM | > 169 µM | ≥ 169 µM | ≥ 169 µM | ≥ 169 µM | ≥ 169 µM | ≥ 169 µM | > 169 µM | ≥ 169 µM | > 169 µM |  |  |  |  |  |  | 
2 | CC(C)C[C@H](NC(=O)CNC(=O)[C@H](CC(C)C)NC(=O)[C@@H](N)Cc1ccccc1)C(=O)N[C@@H](CC(C)C)C(=O)N[C@@H](Cc1ccccc1)C(=O)N[C@@H](CCCCN)C(=O)N[C@H](C(=O)N[C@@H](C)C(=O)N[C@@H](CO)C(=O)N[C@@H](CCCCN)C(=O)O)C(C)C [FLGLLFKVASK] | 81.8 µM (≈ 100 µg/mL) | > 164 µM | ≥ 40.9 µM | ≥ 40.9 µM | ≥ 164 µM | ≥ 164 µM | ≥ 164 µM | 20.4 µM (≈ 25 µg/mL) | 10.2 µM (≈ 12.5 µg/mL) | 164 µM (≈ 200 µg/mL) |  |  |  |  |  |  | 
3 | CC(C)C[C@H](NC(=O)[C@@H](NC(=O)[C@H](CCCCN)NC(=O)[C@H](CO)NC(=O)[C@H](C)NC(=O)[C@@H](NC(=O)[C@H](CCCCN)NC(=O)[C@H](Cc1ccccc1)NC(=O)[C@H](CC(C)C)NC(=O)[C@H](C)NC(=O)[C@H](CCCCN)NC(=O)[C@H](CC(C)C)NC(=O)[C@@H](N)Cc1ccccc1)C(C)C)C(C)C)C(=O)O [FLKALFKVASKVL] | 2.12 µM (≈ 3.1 µg/mL) | 17.1 µM (≈ 25 µg/mL) | 8.54 µM (≈ 12.5 µg/mL) | 2.12 µM (≈ 3.1 µg/mL) | ≥ 137 µM | 8.54 µM (≈ 12.5 µg/mL) | 4.3 µM (≈ 6.3 µg/mL) | 2.12 µM (≈ 3.1 µg/mL) | 2.12 µM (≈ 3.1 µg/mL) | 4.3 µM (≈ 6.3 µg/mL) |  |  |  |  |  |  | 
4 | CC[C@H](C)[C@H](NC(=O)CN)C(=O)N[C@@H](CC(C)C)C(=O)N[C@@H](CC(=O)O)C(=O)N[C@H](C(=O)N[C@@H](CC(C)C)C(=O)N[C@@H](CCCCN)C(=O)N[C@@H](CCC(N)=O)C(=O)N[C@@H](Cc1ccccc1)C(=O)N[C@@H](C)C(=O)N[C@@H](CCCCN)C(=O)NCC(=O)N[C@H](C(=O)NCC(=O)N[C@@H](CCCCN)C(=O)N[C@@H](CC(=O)O)C(=O)N[C@@H](CC(C)C)C(=O)N[C@H](C(=O)N[C@@H](CCCCN)C(=O)NCC(=O)N[C@@H](C)C(=O)N[C@@H](C)C(=O)N[C@@H](CCC(N)=O)C(=O)NCC(=O)N[C@H](C(=O)N[C@@H](CC(C)C)C(=O)N[C@@H](CO)C(=O)N[C@H](C(=O)O)[C@@H](C)O)C(C)C)C(C)C)C(C)C)[C@@H](C)O [GILDTLKQFAKGVGKDLVKGAAQGVLST] |  | 17.8 µM (≈ 50 µg/mL) | 17.8 µM (≈ 50 µg/mL) | 17.8 µM (≈ 50 µg/mL) | ≥ 35.5 µM | 26.6 µM (≈ 75 µg/mL) | 8.88 µM (≈ 25 µg/mL) |  | 0.888 µM (≈ 2.5 µg/mL) | 8.88 µM (≈ 25 µg/mL) |  |  |  |  |  |  | MIC (Serratia marcescens): ≥ 35.5 µM; MIC (Candida albicans): > 35.5 µM; MIC (Saccharomyces cerevisiae): 8.88 µM (≈ 25 µg/mL)
5 | CC[C@H](C)[C@H](NC(=O)[C@@H](NC(=O)[C@@H]1CCCN1C(=O)[C@@H](NC(=O)[C@@H]1CCCN1C(=O)[C@H](CCCCN)NC(=O)[C@H](CCCCN)NC(=O)[C@H](CO)NC(=O)CN)C(C)C)[C@@H](C)CC)C(=O)N[C@@H](Cc1ccc(O)cc1)C(=O)N[C@H]1CSSC[C@@H](C(=O)N[C@@H](CCC(N)=O)C(=O)N[C@@H](CCCN=C(N)N)C(=O)N[C@@H](CCSC)C(=O)O)NC(=O)[C@H](CCCCN)NC(=O)[C@H](CCCN=C(N)N)NC(=O)[C@H](CCCN=C(N)N)NC(=O)[C@H](CC(N)=O)NC1=O [GSKKPVPIIYCNRRKCQRM] |  | 10.4 µM (≈ 23.7 µg/mL) | 5.2 µM (≈ 11.8 µg/mL) |  |  | 1.3 µM (≈ 2.96 µg/mL) |  | 10.4 µM (≈ 23.7 µg/mL) |  |  |  |  |  |  |  |  | MIC (Escherichia coli HB101): 2.6 µM (≈ 5.92 µg/mL)
6 | CC[C@H](C)[C@H](NC(=O)[C@H](CC(C)C)NC(=O)[C@H](CCCCN)NC(=O)[C@@H](NC(=O)[C@@H](NC(=O)[C@H](CC(C)C)NC(=O)[C@H](CCCCN)NC(=O)[C@H](CC(C)C)NC(=O)[C@@H](NC(=O)[C@H](CCCN=C(N)N)NC(=O)[C@@H](NC(=O)[C@H](CC(C)C)NC(=O)[C@@H](NC(=O)[C@H](CCCN=C(N)N)NC(=O)[C@H](CCCN=C(N)N)NC(=O)[C@@H](N)CCCCN)[C@@H](C)CC)[C@@H](C)CC)[C@@H](C)CC)[C@@H](C)CC)[C@@H](C)CC)C(=O)N[C@@H](CC(C)C)C(=O)N[C@@H](CCCCN)C(=O)N[C@@H](CCCCN)C(=O)N[C@@H](CCCN=C(N)N)C(N)=O [KRRILIRILKLIIKLILKKR] |  |  |  |  |  |  |  |  |  |  | 0.989 µM (≈ 2.5 µg/mL) | 3.96 µM (≈ 10 µg/mL) | 3.96 µM (≈ 10 µg/mL) | 0.396 µM (≈ 1 µg/mL) | 0.989 µM (≈ 2.5 µg/mL) | 3.96 µM (≈ 10 µg/mL) | 
7 | CC(C)C[C@H](NC(=O)[C@H](C)NC(=O)[C@H](CCCN=C(N)N)NC(=O)[C@H](CCCN=C(N)N)NC(=O)[C@H](C)NC(=O)[C@H](Cc1ccccc1)NC(=O)[C@H](CCCN=C(N)N)NC(=O)[C@@H](N)CC(C)C)C(=O)N[C@@H](CCCN=C(N)N)C(=O)N[C@@H](CCCN=C(N)N)C(=O)N[C@@H](CC(C)C)C(=O)N[C@@H](Cc1ccccc1)C(N)=O [LRFARRALRRLF] |  |  |  |  |  |  |  |  |  |  | 0.635 µM (≈ 0.999 µg/mL) | 0.318 µM (≈ 0.5 µg/mL) | 0.159 µM (≈ 0.25 µg/mL) | 0.635 µM (≈ 0.999 µg/mL) | 0.159 µM (≈ 0.25 µg/mL) | 1.59 µM (≈ 2.5 µg/mL) | 
8 | CC(C)C[C@H](NC(=O)[C@@H](NC(=O)[C@@H](NC(=O)[C@@H](N)CC(C)C)C(C)C)[C@@H](C)O)C(=O)N[C@H](C(=O)N[C@@H](Cc1ccccc1)C(=O)N[C@H](C(=O)NCC(=O)NCC(=O)NCC(=O)N[C@@H](Cc1c[nH]c2ccccc12)C(=O)N[C@@H](CCCCN)C(=O)N[C@@H](Cc1c[nH]c2ccccc12)C(=O)N[C@@H](CCCCN)C(=O)N[C@@H](Cc1c[nH]c2ccccc12)C(=O)N[C@@H](CCC(=O)O)C(=O)N[C@@H](CC(N)=O)C(=O)NCC(=O)N[C@@H](CCCCN)C(=O)N[C@@H](Cc1c[nH]c2ccccc12)C(=O)N[C@@H](CCCCN)C(=O)N[C@@H](Cc1c[nH]c2ccccc12)C(=O)N[C@@H](CCC(N)=O)C(=O)N[C@@H](Cc1c[nH]c2ccccc12)C(=O)O)C(C)C)C(C)C [LVTLVFVGGGWKWKWENGKWKWQW] |  |  |  |  |  |  |  |  |  |  |  |  |  |  |  |  | MIC [8]: ≥ 128 µM; MIC [9]: > 128 µM; MIC [10]: ≥ 128 µM; MIC [11]: > 128 µM; MIC [12]: > 128 µM; MIC [13]: > 128 µM
9 | CC(C)C[C@H](NC(=O)[C@H](CC(C)C)NC(=O)[C@H](CCCN=C(N)N)NC(=O)[C@H](CCCCN)NC(=O)[C@H](CC(C)C)NC(=O)[C@H](CC(C)C)NC(=O)[C@H](CCCCN)NC(=O)[C@H](CCCCN)NC(=O)[C@H](CCCN=C(N)N)NC(=O)[C@H](CCCCN)NC(=O)[C@H](CCCCN)NC(=O)[C@@H](N)CCCN=C(N)N)C(N)=O [RKKRKKLLKRLL] |  |  |  |  |  |  |  |  |  |  | 3.16 µM (≈ 5 µg/mL) | 0.158 µM (≈ 0.25 µg/mL) | 0.0633 µM (≈ 0.1 µg/mL) | 3.16 µM (≈ 5 µg/mL) | 0.633 µM (≈ 0.999 µg/mL) | 6.33 µM (≈ 9.99 µg/mL) | 
10 | CC[C@H](C)[C@H](NC(=O)[C@H](CCCN=C(N)N)NC(=O)[C@@H](N)CCCN=C(N)N)C(=O)N[C@@H](CCCN=C(N)N)C(=O)N1CCC[C@H]1C(=O)N[C@@H](CCCN=C(N)N)C(=O)N1CCC[C@H]1C(=O)N[C@@H](CCCN=C(N)N)C(=O)N[C@@H](CS)C(=O)O [RRIRPRPRC] |  |  |  |  |  |  |  |  |  |  |  |  |  |  |  |  | MIC (Escherichia coli HB101): ≥ 128 µM; MIC [11]: > 128 µM
